pEC50, pIC50: −log10 of the molar value. Read-outs that look alike come from different tables or passages of the source.
Columns and labels:
A549 cells [1] = test: cell number (cell viability) in A549 cells, Hoechst 33342, automated microscopy; type: cell-based, human; details: for cell viability in primary screen: 1 µM
Description: (§1) We developed a high-throughput, high-content, cell-based assay to monitor rubella virus infection of the human respiratory cell line A549, as the respiratory tract is infected in humans. […] We infected A549 cells with the rubella virus vaccine strain (RA27/3) and monitored infection using an antibody to the viral glycoprotein E1 (Fig. 1A) ([13]). […] To evaluate the utility of nanchangmycin as a positive control for our assay development, we performed a dose–response assay for nanchangmycin using automated fluorescent microscopy to quantify the cell number as a surrogate for cell viability and percent infection (Fig. 1A).
(§2) A549 cells were plated in 384 well plates at 3,000 cells/well, HBMEC were plated at 7,000 cells/well, or Jeg-3 cells were plated at 3,000 cells/well in 20 μL growth media. The next day, 50 nL of drugs were added to assay wells, yielding a final concentration of 1 µM. The positive control nanchangmycin (n = 32) and the negative control DMSO (n = 32) were spotted on each assay plate. One hour later, cells were infected with rubella virus at a multiplicity of infection (MOI) = 0.234 for A549s, MOI = 0.1 for HBMEC, MOI = 0.05 for Jeg-3 cells). […] HBMECs were spin-infected by centrifuging at 1,250×g for 1 h at 25°C. Cells were fixed at 48 h post infection (hpi) in 4% formaldehyde/phosphate-buffered saline (PBS) for 15 min at room temperature and then washed twice with PBS. Cells were blocked with blocking buffer [2% bovine serum albumin in PBS with 0.1% Triton X-100 (PBST)]) for 1 h and incubated with primary antibody (mouse antirubella E1, CDC, 1 μg/mL) overnight at 4°C. Cells were washed three times with PBST and incubated in secondary (1:1000 antimouse Alexa Fluor 488 and 5 μg/mL Hoechst 33342) for 1 h at room temperature. Cells were washed three times with PBST and imaged using ImageXpress Micro (Molecular Devices). Cells were imaged with a 10× objective capturing four sites per well. The total number of cells and the percentage of infected cells were measured using the MetaXpress 5.3.3 cell scoring module. The aggregated percent infection of the DMSO and 2 µM nanchangmycin control wells on each assay plate were used to calculate Z′-factors. Sample well infection was normalized to aggregated DMSO plate control wells and expressed as percentage of control (POC = [%Infection sample/Average %Infection DMSO] × 100) and Z-score (Z = [%Infection sample − Average %Infection DMSO]/Standard Deviation %Infection DMSO) in Spotfire (PerkinElmer). Candidate hits were selected as compounds with POC <40% and viability >60%, compared with vehicle control.
(§3) Drugs were purchased as powders from Selleckchem, MedchemExpress, and MedKoo and suspended in DMSO. Drugs were arrayed in 8-pt dose–response in 384 well plates. Infections were performed using the screening conditions. DMSO (n = 32) and 2 µM nanchangmycin (n = 16) were included on each validation plate as controls for normalization. Infection at each drug concentration was normalized to aggregated DMSO plate control wells and expressed as POC (POC = %Infection sample/Average %Infection DMSO cont). A nonlinear regression curve fit analysis (GraphPad Prism 8) was performed on POC infection and cell viability using log10 transformed concentration values to calculate IC50 values for infection and CC50 values for cell viability. SI was calculated as a ratio of the drug's CC50 and IC50 values (SI = CC50/IC50).

rubella RA27/3 virus = test: microbe, parasite or virus in culture; type: cell-based; details: for activity against rubella in A549 cells: dose-response; for inhibition of infection in primary screen: 1 µM, compared with vehicle alone; for inhibition at 1 µM: Rubella virus, A549, read-out: inhibition of infection in primary screen
Description: as §1
as §2, with “plate.” for “plate. One hour later, cells were infected with rubella virus at a multiplicity of infection (MOI) = 0.234 for A549s, MOI = 0.1 for HBMEC, MOI = 0.05 for Jeg-3 cells).”, “Cells were washed three times with PBST and incubated in secondary (1:1000 antimouse Alexa Fluor 488 and 5 μg/mL Hoechst 33342) for 1 h at room temperature.” left out
as §3

rubella virus [2] = test: rubella virus infection of HBMEC, dose-response; type: cell-based; details: dose-response
Experimental: Rubella virus can infect diverse tissues in vivo, and viruses can show tissue-specific dependencies on host factors. […] First, we developed assays in human brain microvascular endothelial cells (HBMECs) as a model for endothelial cells. We again used nanchangmycin to optimize the assay (Fig. 3A and B).
as §2, §3

rubella virus [3] = test: rubella virus infection of Jeg-3 cells, dose-response; type: cell-based; details: Jeg-3 cells, dose-response
Experimental: Since rubella can cause congenital infections, we next developed assays in the human trophoblast cell line Jeg-3.
as §2, §3

A549 cells [4] = test: ATPLite assay of cytotoxicity in A549 cells; type: cell-based, human
Description: To determine whether LY2090314 is targeting GSK-3 or potentially a different target, we tested two additional GSK-3 inhibitors, AZD2858 and CHIR99021. […] We also validated the PIKfyve inhibitor APY0201, known to block entry of viruses that use endosomal entry routes and found robust activity (SI = 102). […] All three of the NAMPT inhibitors identified in the screen (STF-118804, GMX1778, and daporinad) validated with high potency (SI > 500).

[5] = cell number (cell viability) in A549 cells, Hoechst 33342, automated microscopy; type: cell-based, human; details: human
Description: as §1, §2, §3

Jeg-3 cells = test: cell number (cell viability) in Jeg-3 cells; type: cell-based, human
Experimental: as §2, with “The aggregated percent infection of the DMSO and 2 µM nanchangmycin control wells on each assay plate were used to calculate Z′-factors.” left out, “Candidate hits were selected as compounds with POC <40% and viability >60%, compared with vehicle control.” left out
Drugs were purchased as powders from Selleckchem, MedchemExpress, and MedKoo and suspended in DMSO. […] Infection at each drug concentration was normalized to aggregated DMSO plate control wells and expressed as POC (POC = %Infection sample/Average %Infection DMSO cont). […] SI was calculated as a ratio of the drug's CC50 and IC50 values (SI = CC50/IC50).

[6] = A549 cells (infected with rubella virus RA27/3), A549 cells, 1 µM, compared with vehicle alone, read-out: cell viability in primary screen

Structure (SMILES)	activity against rubella in A549 cells (rubella RA27/3 virus; A549 cells)	activity against rubella in HBMEC (rubella virus [2])	selectivity index (SI = CC50/IC50) (rubella RA27/3 virus; A549 cells)	activity against rubella in Jeg-3 cells (rubella virus [3])	also measured
Cc1c(-c2ccc(N3CCc4cccc(C(=O)Nc5nc6ccccc6s5)c4C3)nc2C(=O)O)cnn1CC12CC3CC(CC(C3)C1)C2 [A-1331852]	little activity				toxicity in A549 cells (A549 cells [1]): significant toxicities
Cc1cccc(/C=N/Nc2cc(N3CCOCC3)n3nc(-c4ccncc4)cc3n2)c1 [APY0201]		showed activity	102	active	
CN1CCN(S(=O)(=O)c2ccc(-c3cnc(N)c(C(=O)Nc4cccnc4)n3)cc2)CC1 [AZD2858]	little activity				
Cc1c[nH]c(-c2cnc(NCCNc3ccc(C#N)cn3)nc2-c2ccc(Cl)cc2Cl)n1 [CHIR99021]	little activity				
Cn1cc(C2=C(c3cccc(N)c3)C(=O)NC2=O)c2ccccc21 [CP21R7]					cell viability in primary screen (A549 cells [1]): > 60%; inhibition of infection in primary screen (rubella RA27/3 virus; A549 cells): > 60%
N#CN=C(NCCCCCCOc1ccc(Cl)cc1)Nc1ccncc1 [GMX1778]		showed activity	> 500	active	pIC50 (A549 cells [4]; Homo sapiens, A549, read-out: IC50 of ATP content depletion (ATPLite)): 7.70; viability at 48 h, 1 µM ([5]; A549 cells, 1 µM, compared with vehicle alone, read-out: cell viability in primary screen): > 60%; inhibition at 1 µM (rubella RA27/3 virus): > 60%
CCc1c(O)cc(O)c(C(=O)c2ccc(OCCN3CCOCC3)c(OC)c2)c1CC(=O)N(CCOC)CCOC.Cl [KW-2478]					cell viability in primary screen (A549 cells [1]): > 60%; inhibition of infection in primary screen (rubella RA27/3 virus; A549 cells): > 60%
O=C1NC(=O)C(c2cnc3ccccn23)=C1c1cn2c3c(cc(F)cc13)CN(C(=O)N1CCCCC1)CC2 [LY2090314]		showed activity	> 2000	no activity	toxicity in Jeg-3 cells (Jeg-3 cells; Jeg-3 cells): no toxicity; viability at 48 h, 1 µM [5, 6]: > 60%; inhibition at 1 µM (rubella RA27/3 virus): > 60%
CN1CCC(NC(=O)c2cc(-c3c(O)cc(O)cc3Oc3ccc([N+](=O)[O-])cc3)on2)CC1 [NMS-E973]					inhibition of infection in primary screen (rubella RA27/3 virus; A549 cells): > 60%
Cc1ccc(S(=O)(=O)Cc2nc(-c3ccc(C(=O)NCc4cccnc4)cc3)oc2C)cc1 [STF-118804]		showed activity		active	pIC50 (A549 cells [4]; A549 cells, read-out: IC50 of ATP content depletion (ATPLite)): 8.00; cell viability in primary screen (A549 cells [1]): > 60%; inhibition of infection in primary screen (rubella RA27/3 virus; A549 cells): > 60%
N#Cc1c(Oc2ccc(F)c(NC(=O)Cc3cccc(C(F)(F)F)c3)c2)ccc2nc(NC(=O)C3CC3)sc12 [TAK-632]	little activity				
C/C=C/C[C@@H](C)[C@@H](O)[C@H]1C(=O)N[C@@H](CC)C(=O)N(C)[C@H](C)C(=O)N(CC)[C@@H](C(C)C)C(=O)N[C@@H](C(C)C)C(=O)N(C)[C@@H](CC(C)C)C(=O)N[C@@H](C)C(=O)N[C@H](C)C(=O)N(C)[C@@H](CC(C)C)C(=O)N(C)[C@@H](CC(C)C)C(=O)N(C)[C@@H](C(C)C)C(=O)N1C [alisporivir]	little activity				
Cc1cccc(/C=N/Nc2cc(N3CCOCC3)nc(OCCc3ccccn3)n2)c1 [apilimod]		showed activity	> 8	active	
O=C(/C=C/c1cccnc1)NCCCCC1CCN(C(=O)c2ccccc2)CC1 [daporinad]		showed activity	> 500	active	pIC50 (A549 cells [4]; Homo sapiens, A549 cells, read-out: IC50 of ATP content depletion (ATPLite)): 8.00; viability at 48 h, 1 µM [5, 6]: > 60%; inhibition at 1 µM (rubella RA27/3 virus): > 60%
COC1=C2C[C@@H](C)C[C@H](OC)[C@H](O)[C@@H](C)/C=C(\C)[C@H](OC(N)=O)[C@@H](OC)/C=C\C=C(/C)C(=O)NC(=CC1=O)C2=O [geldanamycin]		showed activity	> 163		toxicity in Jeg-3 cells (Jeg-3 cells): high toxicity; viability at 48 h, 1 µM [5]: > 60%; inhibition at 1 µM (rubella RA27/3 virus): > 60%
COc1c(C)c2c(c(O)c1C/C=C(\C)CCC(=O)O)C(=O)OC2 [mycophenolic acid]		showed activity	6	active	toxicity in A549 cells (A549 cells [1]; human, 48 h): higher toxicity in A549 cells than in Jeg-3 cells
CO[C@H]1CC[C@@H](O[C@H]2C[C@H]([C@]3(C)CC[C@]4(C[C@H](O)[C@@H](C)[C@@H]([C@@H](C)/C=C(\C)C(=O)[C@H](C)C[C@H](C)C(=O)O)O4)O3)O[C@]3(O[C@@H]([C@H]4O[C@@](O)(CO)[C@H](C)C[C@@H]4C)C[C@@H]3C)[C@@H]2C)O[C@@H]1C [nanchangmycin]				active	CC50 (A549 cells [1]; A549 cells, cell number, read-out: half-maximal cytotoxicity concentration (CC50)): 3000 nM; pIC50 (rubella RA27/3 virus; A549 cells, 48 hpi, read-out: half-maximal inhibitory concentration (IC50), rubella virus infection): 7.52; pEC50 (rubella RA27/3 virus; A549 cells, MOI = 0.2, 48 hpi, read-out: EC50 (printed in Fig. 1B)): 7.52
CC1(C)CCC(c2ccc(Cl)cc2)=C(CN2CCN(c3ccc(C(=O)NS(=O)(=O)c4ccc(N[C@H](CCN5CCOCC5)CSc5ccccc5)c(S(=O)(=O)C(F)(F)F)c4)cc3)CC2)C1 [navitoclax]	little activity				toxicity in A549 cells (A549 cells [1]): significant toxicities
COC1=CC(c2cc3ccccc3[nH]2)=N/C1=C\c1[nH]c(C)cc1C [obatoclax]	little activity	showed activity		active	toxicity in A549 cells (A549 cells [1]): significant toxicities

— paper PMC10479830, “Nucleoside analogs NM107 and AT-527 are antiviral against rubella virus” (PNAS Nexus, 2023)
